The values below come from PubChem BioAssay AID248 (DTP/NCI, 2004).

The assay concerns L1210 leukemia ip in BDF1 mice, survival T/C. Briefly: NCI In Vivo Anticancer Drug Screen. Data for tumor model L1210 Leukemia (intraperitoneal) in B6D2F1 (BDF1) mice. The following applies: endpoint: mean survival time, higher = longer survival. In outline: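 Transplanted-tumor mice were given test agent; controls received vehicle only. Survival readings from the two groups were divided (treated over control).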

The mark [1] stands for this setting: dose: 50.0 mg/kg/injection, schedule: Q01DX001 (ip), vehicle: other.
Where [2] appears, read: dose: 50.0 mg/kg/injection, schedule: Q01DX009 (ip), vehicle: Klucel (hydroxypropylcellulose) (HPC).
The mark [3] stands for this setting: dose: 100.0 mg/kg/injection, schedule: Q04DX003 (ip), vehicle: saline with Tween-80.
Setting [4] is: dose: 200.0 mg/kg/injection, schedule: Q04DX003 (ip), vehicle: saline with Tween-80.
The mark [5] stands for this setting: dose: 400.0 mg/kg/injection, schedule: Q04DX003 (ip), vehicle: saline with Tween-80.
Setting [6] is: dose: 100.0 mg/kg/injection, schedule: Q01DX009 (ip), vehicle: saline with Tween-80.
Where [7] appears, read: dose: 200.0 mg/kg/injection, schedule: Q01DX009 (ip), vehicle: saline with Tween-80.
Where [8] appears, read: dose: 100.0 mg/kg/injection, schedule: Q01DX009 (ip), vehicle: Klucel (hydroxypropylcellulose) (HPC).
Where [9] appears, read: dose: 100.0 mg/kg/injection, schedule: Q04DX002 (ip), vehicle: gum acacia.
Setting [10] is: dose: 200.0 mg/kg/injection, schedule: Q04DX002 (ip), vehicle: gum acacia.
Setting [11] is: dose: 100.0 mg/kg/injection, schedule: Q01DX001 (ip), vehicle: saline.

SMILES strings stand for the structures. “And” between values parts separate entries of the source, which are not always exact repeats. Identical values can stand only once. Toxic doses and inconclusive results are not listed.

Regarding `Cc1cnc2c(Nc3ccc(Cl)cc3)cc(N)nc2n1`, the T/C was 94 % of control (dose: 12.5 mg/kg/injection, schedule: Q01DX001 (ip), vehicle: other); 96 % of control (dose: 25.0 mg/kg/injection, schedule: Q01DX001 (ip), vehicle: other); 96 % of control (dose: 25.0 mg/kg/injection, schedule: Q04DX003 (ip), vehicle: Klucel (hydroxypropylcellulose) (HPC)); 94 % of control and 105 % of control under setting [1]; 94 % of control under setting [2]; 101 % of control (dose: 50.0 mg/kg/injection, schedule: Q04DX003 (ip), vehicle: Klucel (hydroxypropylcellulose) (HPC)).

Consider `COc1ccc(C(=O)C(C)CC(=O)O)cc1OC` (centres undefined), for which the T/C is, setting by setting: (dose: 75.0 mg/kg/injection, schedule: Q01DX009 (ip), vehicle: Klucel (hydroxypropylcellulose) (HPC)) 102 % of control; (dose: 150.0 mg/kg/injection, schedule: Q01DX009 (ip), vehicle: Klucel (hydroxypropylcellulose) (HPC)) 94 % of control; (dose: 300.0 mg/kg/injection, schedule: Q01DX009 (ip), vehicle: Klucel (hydroxypropylcellulose) (HPC)) 91 % of control.

As for `COc1ccccc1NNS(=O)(=O)c1cccc([N+](=O)[O-])c1`, the T/C is, setting by setting: (dose: 75.0 mg/kg/injection, schedule: Q04DX003 (ip), vehicle: Klucel (hydroxypropylcellulose) (HPC)) 104 % of control; (dose: 100.0 mg/kg/injection, schedule: Q01DX001 (ip), vehicle: Klucel (hydroxypropylcellulose) (HPC)) 100 % of control; (dose: 150.0 mg/kg/injection, schedule: Q04DX003 (ip), vehicle: Klucel (hydroxypropylcellulose) (HPC)) 94 % of control; (dose: 200.0 mg/kg/injection, schedule: Q01DX001 (ip), vehicle: Klucel (hydroxypropylcellulose) (HPC)) 103 % of control; (dose: 300.0 mg/kg/injection, schedule: Q04DX003 (ip), vehicle: Klucel (hydroxypropylcellulose) (HPC)) 104 % of control; (dose: 400.0 mg/kg/injection, schedule: Q01DX001 (ip), vehicle: Klucel (hydroxypropylcellulose) (HPC)) 105 % of control.

As to `Brc1ccc2[nH]c3c(c2c1)CSc1ccccc1-3`, the T/C was 105 % of control under setting [3], 99 % of control under setting [4] and 103 % of control under setting [5].

For the molecule `Oc1cccc2c1ccc1ccc3ccccc3c12`, the T/C was 92 % of control under setting [3], 95 % of control under setting [4] and 90 % of control under setting [5].

`O=C(c1ccccc1)c1ccsc1C(=O)c1ccccc1`: the T/C (dose: 50.0 mg/kg/injection, schedule: Q01DX009 (ip), vehicle: saline with Tween-80) was 89 % of control; the T/C under setting [6] was 86 % of control; the T/C under setting [7] was 89 % of control.

Take `O=C(Nc1ccc(C2=NCCN2)c(Cl)c1)c1cccc(C(=O)Nc2ccc(C3=NCCN3)c(Cl)c2)c1`: the T/C runs as follows: (dose: 15.0 mg/kg/injection, schedule: Q01DX Z (ip), vehicle: carboxymethylcellulose (CMC)) 93 % of control; (dose: 30.0 mg/kg/injection, schedule: Q01DX Z (ip), vehicle: carboxymethylcellulose (CMC)) 86 % of control.

With `Cc1ccc([N+](=O)[O-])cc1NC(=O)N(CCC#N)C1CCCCC1`, the T/C is 101 % of control under setting [8]; 105 % of control (dose: 200.0 mg/kg/injection, schedule: Q01DX009 (ip), vehicle: Klucel (hydroxypropylcellulose) (HPC)); 95 % of control (dose: 400.0 mg/kg/injection, schedule: Q01DX009 (ip), vehicle: Klucel (hydroxypropylcellulose) (HPC)).

As to `Cc1nc(C#N)c(C#N)nc1-c1ccccc1`, the T/C by setting is: (dose: 100.0 mg/kg/injection, schedule: Q04DX002 (ip), vehicle: saline with Tween-80) 95 % of control; (dose: 200.0 mg/kg/injection, schedule: Q04DX002 (ip), vehicle: saline with Tween-80) 95 % of control; (dose: 400.0 mg/kg/injection, schedule: Q04DX002 (ip), vehicle: saline with Tween-80) 95 % of control.

Take `Cc1cccnc1NC(=S)Nc1ccccc1Cl`: the T/C under setting [9] is 88 % of control and the T/C under setting [10] was 98 % of control.

Consider `NCC1=NCCN1`, for which the T/C (dose: 25.0 mg/kg/injection, schedule: Q04DX002 (ip), vehicle: saline) is 93 % of control; the T/C (dose: 50.0 mg/kg/injection, schedule: Q04DX002 (ip), vehicle: saline) is 97 % of control; the T/C (dose: 100.0 mg/kg/injection, schedule: Q04DX002 (ip), vehicle: saline) was 101 % of control; the T/C (dose: 200.0 mg/kg/injection, schedule: Q04DX002 (ip), vehicle: saline) is 93 % of control.

Turning to `Nc1[nH]c(=O)[nH]c(=O)c1N=Nc1ccc(S(=O)(=O)Nc2ccccn2)cc1`, the T/C is 98 % of control under setting [11]; 96 % of control (dose: 200.0 mg/kg/injection, schedule: Q01DX001 (ip), vehicle: saline); 104 % of control (dose: 400.0 mg/kg/injection, schedule: Q01DX001 (ip), vehicle: saline).

Take `O=C(O)c1ccc2ccccc2n1.[Cu+2]`: the T/C under setting [11] is 93 % of control.

As for `O=C(Nc1cccc2ccccc12)c1ccc(C(=O)Nc2cccc3ccccc23)c(C(=O)O)c1`, the T/C runs as follows: (dose: 50.0 mg/kg/injection, schedule: Q04DX002 (ip), vehicle: gum acacia) 94 % of control; under setting [9], 90 % of control; under setting [10], 94 % of control.

As to `C=CCCCCn1c2ccccc2c2c(C)c3cnccc3c(C)c21`, the T/C by setting is: under setting [3], 91 % of control; under setting [4], 91 % of control; under setting [5], 92 % of control.

For `Cn1c(=O)c(=O)n(C)c2cc(Cl)c(Cl)cc21`, the T/C (dose: 100.0 mg/kg/injection, schedule: Q01DX001 (ip), vehicle: carboxymethylcellulose (CMC)) is 94 % of control and the T/C (dose: 200.0 mg/kg/injection, schedule: Q01DX001 (ip), vehicle: carboxymethylcellulose (CMC)) is 105 % of control.

On to `O=NN(CCF)C(=O)NC1CCSc2ccccc21` (centres undefined), for which the T/C runs as follows: (dose: 6.0 mg/kg/injection, schedule: Q01DX001 (ip), vehicle: other) 109 % of control; (dose: 9.0 mg/kg/injection, schedule: Q01DX001 (ip), vehicle: other) 120 % of control; (dose: 20.0 mg/kg/injection, schedule: Q01DX001 (ip), vehicle: other) 161 % of control; (dose: 30.0 mg/kg/injection, schedule: Q01DX001 (ip), vehicle: other) 289 % of control.

Consider `CCC(C)c1cc(CN(C)C)cc(C(C)CC)c1O` (centres undefined), for which the T/C runs as follows: (dose: 12.5 mg/kg/injection, schedule: Q01DX009 (ip), vehicle: Klucel (hydroxypropylcellulose) (HPC)) 105 % of control; (dose: 25.0 mg/kg/injection, schedule: Q01DX009 (ip), vehicle: Klucel (hydroxypropylcellulose) (HPC)) 105 % of control; under setting [2], 96 % of control; under setting [8], 102 % of control.

Turning to `Cc1ccc(N(O)C(=O)Nc2ccccc2)cc1`, the T/C is, setting by setting: (dose: 50.0 mg/kg/injection, schedule: Q01DX015 (ip), vehicle: methylcellulose (MC)) 102 % of control; (dose: 100.0 mg/kg/injection, schedule: Q01DX015 (ip), vehicle: methylcellulose (MC)) 91 % of control; (dose: 200.0 mg/kg/injection, schedule: Q01DX015 (ip), vehicle: methylcellulose (MC)) 96 % of control.

Take `CC(=O)N(C)c1ccc(NC(=O)Nc2cc([N+](=O)[O-])ccc2C)cc1`: the T/C was 106 % of control (dose: 100.0 mg/kg/injection, schedule: Q04DX002 (ip), vehicle: Klucel (hydroxypropylcellulose) (HPC)); 108 % of control (dose: 200.0 mg/kg/injection, schedule: Q04DX002 (ip), vehicle: Klucel (hydroxypropylcellulose) (HPC)); 101 % of control (dose: 400.0 mg/kg/injection, schedule: Q04DX002 (ip), vehicle: Klucel (hydroxypropylcellulose) (HPC)).

With `CCOC(=O)CN(c1ccccc1-c1ccccc1)S(=O)(=O)c1ccc(C)cc1`, the T/C was 92 % of control under setting [1]; 89 % of control (dose: 100.0 mg/kg/injection, schedule: Q01DX001 (ip), vehicle: other); 101 % of control (dose: 200.0 mg/kg/injection, schedule: Q01DX001 (ip), vehicle: other); 101 % of control (dose: 400.0 mg/kg/injection, schedule: Q01DX001 (ip), vehicle: other).

With `C=C(NC(=O)Cc1ccccc1)C(=O)OC`, the T/C runs as follows: under setting [6], 92 % of control; under setting [3], 102 % of control; under setting [7], 95 % of control; under setting [4], 95 % of control; (dose: 400.0 mg/kg/injection, schedule: Q01DX009 (ip), vehicle: saline with Tween-80) 95 % of control; under setting [5], 91 % of control.
